Measurements taken from ChEMBL document CHEMBL1132520, “Antimalarial activity of 3-hydroxyalkyl-2-methylene-propionic acid derivatives” (1999).
Activity calls are given as the source filed them. The calls are words filed in the database; no cut-off is given here.

What was measured:
Plasmodium falciparum [1] = assay: In vitro inhibition of Plasmodium falciparum at 1.0 uM/well dose at 72 hrs in total parasite growth assay; format: functional
Plasmodium falciparum [2] = assay: In vitro inhibition of Plasmodium falciparum at 10 uM/well dose at 72 hrs in total parasite growth assay; format: functional
Plasmodium falciparum [3] = assay: In vitro antimalarial activity for Plasmodium falciparum at 100 uM/well dose at 24 hrs in Schizont maturation assay; format: functional
Mus musculus [4] = assay: Anti-malarial activity against Plasmodium berghei evaluated in terms of mean survival time for mice (Mus musculus) at a dose of 20 mg/kg; format: functional
Plasmodium falciparum [5] = assay: In vitro inhibition of Plasmodium falciparum at 2.5 uM/well dose at 72 hrs in total parasite growth assay; format: functional
Mus musculus [6] = assay: Antimalarial activity against Plasmodium berghei evaluated in terms of mean survival time for mice (Mus musculus) at a dose of 80 mg/kg; format: functional
Mus musculus [7] = assay: In vivo anti-malarial activity against Plasmodium berghei in mice (Mus musculus) at a dose of 16 mg/kg; Active; format: functional, organism-based; parameters: dose 16 mg/kg
Plasmodium falciparum [8] = assay: In vitro antimalarial activity for Plasmodium falciparum at 50 uM/well dose at 24 hrs in Schizont maturation assay; format: functional
Plasmodium falciparum [9] = assay: In vitro antimalarial activity for Plasmodium falciparum at 1 uM/well dose at 24 hrs in Schizont maturation assay; format: functional
Plasmodium falciparum [10] = assay: In vitro inhibition of Plasmodium falciparum at 0.5 uM/well dose at 72 hrs in total parasite growth assay; format: functional
Plasmodium falciparum [11] = assay: In vitro antimalarial activity for Plasmodium falciparum at 2.5 uM/well dose at 24 hrs in Schizont maturation assay; format: functional
Plasmodium falciparum [12] = assay: In vitro antimalarial activity for Plasmodium falciparum at 0.25 uM/well dose at 24 hrs in Schizont maturation assay; format: functional
Plasmodium falciparum [13] = assay: In vitro inhibition of Plasmodium falciparum at 50 uM/well dose at 72 hrs in total parasite growth assay; format: functional
Plasmodium falciparum [14] = assay: In vitro inhibition of Plasmodium falciparum at 0.25 uM/well dose at 72 hrs in total parasite growth assay; format: functional
Plasmodium falciparum [15] = assay: In vitro antimalarial activity for Plasmodium falciparum at 0.50 uM/well dose at 24 hrs in Schizont maturation assay; format: functional
Plasmodium falciparum [16] = assay: In vitro antimalarial activity for Plasmodium falciparum at 500 uM/well dose at 24 hrs in Schizont maturation assay; format: functional
Plasmodium falciparum [17] = assay: In vitro inhibition of Plasmodium falciparum at 20 uM/well dose at 72 hrs in total parasite growth assay; format: functional
Plasmodium falciparum [18] = assay: In vitro inhibition of Plasmodium falciparum at 5 uM/well dose at 72 hrs in total parasite growth assay; format: functional
Mus musculus [19] = assay: Antimalarial activity against Plasmodium berghei evaluated in terms of mean survival time for mice (Mus musculus) at a dose of 40 mg/kg; format: functional
Mus musculus [20] = assay: Antimalarial activity against Plasmodium berghei evaluated in terms of mean survival time for mice (Mus musculus) at a dose of 160 mg/kg; format: functional
Plasmodium falciparum [21] = assay: In vitro antimalarial activity for Plasmodium falciparum at 20 uM/well dose at 24 hrs in Schizont maturation assay; format: functional
Mus musculus [22] = assay: In vivo anti-malarial activity against Plasmodium berghei in mice (Mus musculus) at a dose of 80 mg/kg; Active; format: functional, organism-based; parameters: dose 80 mg/kg
Plasmodium falciparum [23] = assay: In vitro inhibition of Plasmodium falciparum at 100 uM/well dose at 72 hrs in total parasite growth assay; format: functional
Plasmodium falciparum [24] = assay: In vitro antimalarial activity for Plasmodium falciparum at 0.10 uM/well dose at 24 hrs in Schizont maturation assay; format: functional
Plasmodium falciparum [25] = assay: In vitro antimalarial activity for Plasmodium falciparum at 10 uM/well dose at 24 hrs in Schizont maturation assay; format: functional
Plasmodium falciparum [26] = assay: In vitro antimalarial activity for Plasmodium falciparum at 5 uM/well dose at 24 hrs in Schizont maturation assay; format: functional
Plasmodium falciparum [27] = assay: In vitro antimalarial activity for chloroquine-resistant Plasmodium falciparum at a dose of 4 uM/well through Schizonts maturation assay over 24 hr; format: functional
Plasmodium falciparum [28] = assay: In vitro antimalarial activity for Plasmodium falciparum at 16 uM/well dose at 24 hrs in Schizont maturation assay; format: functional
Plasmodium falciparum [29] = assay: In vitro antimalarial activity for Plasmodium falciparum at 8 uM/well dose at 24 hrs in Schizont maturation assay; format: functional
Plasmodium falciparum [30] = assay: In vitro inhibition of Plasmodium falciparum at 4 uM/well dose at 72 hrs in total parasite growth assay; format: functional
Plasmodium falciparum [31] = assay: In vitro inhibition of Plasmodium falciparum at 2 uM/well dose at 72 hrs in total parasite growth assay; format: functional
Plasmodium falciparum [32] = assay: In vitro antimalarial activity for chloroquine-resistant Plasmodium falciparum at 2 uM/well dose at 24 hrs in Schizont maturation assay; format: functional
Plasmodium falciparum [33] = assay: In vitro antimalarial activity for Plasmodium falciparum at 2 uM/well dose at 24 hrs in Schizont maturation assay; format: functional
Plasmodium falciparum [34] = assay: In vitro antimalarial activity for Plasmodium falciparum at 32 uM/well dose at 24 hrs in Schizont maturation assay; format: functional
Plasmodium falciparum [35] = assay: In vitro antimalarial activity for chloroquine-resistant Plasmodium falciparum at 64 uM/well dose at 24 hrs in Schizont maturation assay; format: functional
Plasmodium falciparum [36] = assay: In vitro inhibition of Plasmodium falciparum at 8 uM/well dose at 72 hrs in total parasite growth assay; format: functional
Plasmodium falciparum [37] = assay: In vitro antimalarial activity for Plasmodium falciparum at 64 uM/well dose at 24 hrs in Schizont maturation assay; format: functional
Plasmodium falciparum [38] = assay: In vitro inhibition of Plasmodium falciparum at 32 uM/well dose at 72 hrs in total parasite growth assay; format: functional
Plasmodium falciparum [39] = assay: In vitro antimalarial activity for chloroquine-resistant Plasmodium falciparum at 16 uM/well dose at 24 hrs in Schizont maturation assay; format: functional
Plasmodium falciparum [40] = assay: In vitro antimalarial activity for chloroquine-resistant Plasmodium falciparum at 1 uM/well dose at 24 hrs in Schizont maturation assay; format: functional
Plasmodium falciparum [41] = assay: In vitro antimalarial activity for chloroquine-resistant Plasmodium falciparum at 8 uM/well dose at 24 hrs in Schizont maturation assay; format: functional
Plasmodium falciparum [42] = assay: In vitro inhibition of Plasmodium falciparum at 16 uM/well dose at 72 hrs in total parasite growth assay; format: functional
Plasmodium falciparum [43] = assay: In vitro inhibition of Plasmodium falciparum at 64 uM/well dose at 72 hrs in total parasite growth assay; format: functional
Plasmodium falciparum [44] = assay: In vitro antimalarial activity for chloroquine-resistant Plasmodium falciparum at 32 uM/well dose at 24 hrs in Schizont maturation assay; format: functional
Plasmodium falciparum [45] = assay: In vitro antimalarial activity for Plasmodium falciparum at 4 uM/well dose at 24 hrs in Schizont maturation assay; format: functional
Plasmodium falciparum [46] = assay: In vitro growth inhibition against Plasmodium falciparum at a dose of 20 uM/well through total parasite growth inhibition assay over 72 hr; format: functional
Mus musculus [47] = assay: In vivo antimalarial activity against Plasmodium berghei in mice (Mus musculus); Inactive; format: functional, organism-based
Plasmodium falciparum [48] = assay: In vitro inhibition of Plasmodium falciparum at 5 uM/well dose at 72 hrs in total parasite growth assay; Not determined; format: functional
Plasmodium falciparum [49] = assay: In vitro inhibition of Plasmodium falciparum at 25 uM/well dose at 72 hrs in total parasite growth assay; format: functional

| SMILES | PGI (Plasmodium falciparum [1]) | PGI (Plasmodium falciparum [2]) | inhibition at 100 µM (Plasmodium falciparum [3]) | Mean survival time (Mus musculus [4]) | PGI (Plasmodium falciparum [5]) | Mean survival time (Mus musculus [6]) | inhibition at 50 µM (Plasmodium falciparum [8]) | inhibition at 1 µM (Plasmodium falciparum [9]) | PGI (Plasmodium falciparum [10]) | inhibition at 2.5 µM (Plasmodium falciparum [11]) | inhibition at 0.25 µM (Plasmodium falciparum [12]) | PGI (Plasmodium falciparum [13]) | PGI (Plasmodium falciparum [14]) | inhibition at 0.5 µM (Plasmodium falciparum [15]) | PGI (Plasmodium falciparum [18]) | inhibition at 20 µM (Plasmodium falciparum [21]) | PGI (Plasmodium falciparum [23]) | inhibition at 0.1 µM (Plasmodium falciparum [24]) | inhibition at 10 µM (Plasmodium falciparum [25]) | inhibition at 5 µM (Plasmodium falciparum [26]) | other results |
| --- | --- | --- | --- | --- | --- | --- | --- | --- | --- | --- | --- | --- | --- | --- | --- | --- | --- | --- | --- | --- | --- |
| C=C(C#N)C(O)c1cccnc1 (configuration not stated) | 77.5% | 97.5% | 100% | 6.4 days | 82.5% | 13.4 days | 100% | 93% | 55% | 100% | 12% | 100% | 20% | 50% | 90% | 100% | 100% | 0% | 100% | 100% | Activity (Mus musculus [7]): Active; inhibition at 500 µM (Plasmodium falciparum [16]): 100%; PGI (Plasmodium falciparum [17]): 100%; Mean survival time (Mus musculus [19]): 8.8 days; Mean survival time (Mus musculus [20]): 15.2 days; Activity (Mus musculus [22]): Active |
| CCN(CC)CCCC(C)Nc1ccnc2cc(Cl)ccc12.O=P(O)(O)O.O=P(O)(O)O (configuration not stated) [CHLOROQUINE PHOSPHATE] | 16.7% | – | – | – | – | – | – | 0% | – | – | – | – | – | – | – | – | – | – | – | – | inhibition at 4 µM (Plasmodium falciparum [27]): 39.4%; inhibition at 16 µM (Plasmodium falciparum [28]): 100%; inhibition at 8 µM (Plasmodium falciparum [29]): 86.8%; PGI (Plasmodium falciparum [30]): 91.7%; PGI (Plasmodium falciparum [31]): 58.3%; inhibition at 2 µM (Plasmodium falciparum [32]): 16%; inhibition at 2 µM (Plasmodium falciparum [33]): 16%; inhibition at 32 µM (Plasmodium falciparum [34]): 100%; inhibition at 64 µM (Plasmodium falciparum [35]): 100%; PGI (Plasmodium falciparum [36]): 100%; inhibition at 64 µM (Plasmodium falciparum [37]): 100%; PGI (Plasmodium falciparum [38]): 100%; inhibition at 16 µM (Plasmodium falciparum [39]): 100%; inhibition at 1 µM (Plasmodium falciparum [40]): 0%; inhibition at 8 µM (Plasmodium falciparum [41]): 86.8%; PGI (Plasmodium falciparum [42]): 100%; PGI (Plasmodium falciparum [43]): 100%; inhibition at 32 µM (Plasmodium falciparum [44]): 100%; inhibition at 4 µM (Plasmodium falciparum [45]): 39.4% |
| COC(=O)C(CNC(C)C)C(O)c1ccc([N+](=O)[O-])cc1 (configuration not stated) | 10% | 42.5% | 100% | 7 days | 15% | 9.8 days | 100% | 14% | 0% | 25% | 0% | 100% | 0% | 0% | 25% | 80% | 100% | 0% | 29% | 29% | PGI (Plasmodium falciparum [46]): 92.5%; Activity (Mus musculus [47]): inactive; Mean survival time (Mus musculus [19]): 8.2 days; Mean survival time (Mus musculus [20]): 11.8 days |
| C=C(C#N)C(O)c1ccccc1 (configuration not stated) | 25.7% | 80% | 100% | – | 62.8% | – | – | 25.7% | 8.6% | 62.8% | 0% | – | – | 8.6% | – | 85% | 100% | 0% | 80% | 65.7% | PGI (Plasmodium falciparum [48]): 65.7%; PGI (Plasmodium falciparum [49]): 85% |
